These are literature values, as cited in publication PMC7395068, “The evolution of strategies to minimise the risk of human drug-induced liver injury (DILI) in drug discovery and development” (Archives of Toxicology, 2020).

Each structure is given as a SMILES string. Like-named read-outs stand apart in the source and are kept apart here.

For data set [1] the following is noted: cited from earlier work.
The subject of data set [2] is HepG2 cells. The conditions noted are these: In vitro Assay; ref O'Brien 2006; cited from earlier work.
The subject of a further data set is human hepatocytes. Conditions: cited from earlier work.
The conditions of data set [3]: cited from earlier work. This is another data set of the same source.
Data set [4] relates to HepG2 cells, primary human hepatocytes. The conditions noted are these: cited from earlier work.
For data set [5] the following is noted: cited from earlier work. This is another data set of the same source.
In a further data set the test system is PHH spheroids. The conditions noted are these: In vitro Assay; ref Vorrink 2018; cited from earlier work.
In data set [6] the test system is HepG2 cells. Conditions: In vitro Assay; ref Persson 2013; cited from earlier work.
For data set [7], the system named is THLE-Null and THLE-3A4 cells. Conditions: In vitro Assay; ref Gustafsson 2014; cited from earlier work.
The next data set relates to rBsep. The conditions noted are these: In vitro Assay; ref Dawson 2012; cited from earlier work.
For data set [8], the system named is isolated mouse liver mitochondria. Conditions: In vitro Assay; ref Porceddu 2012; cited from earlier work.
Data set [9] has as its system THLE or HepG2 cells, isolated mitochondria, BSEP. The conditions noted are these: In vitro Assay; ref Aleo 2019; cited from earlier work.
The mark [10] stands for this setting: In vitro Assay, ref Garside 2014.

On to `CC1=C(/C=C/C(C)=C/C=C/C(C)=C\C(=O)O)C(C)(C)CCC1` [isotretinoin], for which the “DILI +VE (5-8), DILI -VE (-4)” value in data set [1] (ref Chen 2016) was “+VE”. The DILI severity category entry in data set [1] (ref Chen 2016) was “vMost-DILI-Concern”. Also, the “Structural based (HCI)” value is reported as “-VE” with HepG2 cells [2] and “+VE” in the data set on human hepatocytes (In vitro Assay, ref Xu 2008). Further, the “In vivo DILI” value in data set [3] (ref Garside 2014), in [3] (ref O'Brien 2006) and in [3] (ref Xu 2008) was “+VE” in each case. In data set [4] (setting [10]), the “Cluster 1-6 +VE Assay” value is listed as “+VE”. The “DILI Score (FDA) (1-8)” value in data set [5] (ref Chen 2011) is on record as 2.

For `CN(C)[C@@H]1C(O)=C(C(N)=O)C(=O)[C@@]2(O)C(O)=C3C(=O)c4c(O)cccc4[C@@](C)(O)[C@H]3C[C@@H]12` [tetracycline], in data set [1] (in vivo), the “DILI +VE (5-8), DILI -VE (-4)” value was “+VE” and the DILI severity category entry is “vLess-DILI-Concern”. Further, in the data set on human hepatocytes, the “Structural based (HCI)” value is “+VE”. Besides, in the data set on PHH spheroids, the “hLiMTs ATP <20 x Cmax” value was “+VE (IC20 < 20 × Cmax.tot cut-off)”. Also, in [4], the “Cluster 1-6 +VE Assay” value is recorded as “-VE”. In [5] (in vivo), the “DILI Score (FDA) (1-8)” value is listed as 2.

`CC(O)(CS(=O)(=O)c1ccc(F)cc1)C(=O)Nc1ccc(C#N)c(C(F)(F)F)c1` (stereo not drawn) [bicalutamide]: the “DILI +VE (5-8), DILI -VE (-4)” value in [1] (ref Chen 2016) was “+VE”. For the same compound, in [1] (ref Chen 2016), the DILI severity category entry is “vMost-DILI-Concern”. Further, in the data set with HepG2 cells [6], the Cluser analysis entry is “-VE”. Besides, the “Structural based (HCI)” value is listed as “+VE” with HepG2 cells [6] and “-VE” with human hepatocytes (In vitro Assay, ref Xu 2008). Moreover, the “In vivo DILI” value in [3] (ref Aleo 2019), in data set [3] (ref Garside 2014), in data set [3] (ref Persson 2013) and in data set [3] (ref Xu 2008) was “+VE” in each case. In addition, the “Cluster 1-6 +VE Assay” value in data set [4] (setting [10]) is “+VE”. Moreover, the “DILI Score (FDA) (1-8)” value in [5] (ref Chen 2011) is recorded as 8.

In the case of `COc1cc(C)c(/C=C/C(C)=C/C=C/C(C)=C/C(=O)O)c(C)c1C` [acitretin], in data set [1] (in vivo), the “DILI +VE (5-8), DILI -VE (-4)” value was “+VE” and the DILI severity category result is “vMost-DILI-Concern”. In addition, the “Structural based (HCI)” value with human hepatocytes is “-VE”. Further, the “In vivo DILI” value in data set [3] (in vivo) is reported as “+VE”. Also, in data set [7], the THLE-Null entry is recorded as “+VE” and the THLE-Null/3A4 result is “+VE”. In addition, the “Cluster 1-6 +VE Assay” value in [4] (setting [10]) is “+VE”. Also, the “DILI Score (FDA) (1-8)” value in data set [5] (ref Chen 2011) is 5. In the data set on rBsep, the “Inhibition of rBsep cutoff<1& cmax u>.2” value is reported as “-VE” and the “Inhibition of rBsep cutoff<3” value is on record as “+VE”.

For the compound `CN1CCN(CCCN2c3ccccc3Sc3ccc(C(F)(F)F)cc32)CC1` [trifluoperazine, reference compound], the “DILI +VE (5-8), DILI -VE (-4)” value in [1] (ref Chen 2016) is recorded as “-VE”. In [1] (ref Chen 2016), the DILI severity category result is reported as “Ambiguous DILI-concern”. Also, the “Structural based (HCI)” value is reported as “-VE” in the data set on HepG2 cells [2] and “+VE” in the data set on human hepatocytes (In vitro Assay, ref Xu 2008). The “hLiMTs ATP <20 x Cmax” value in the data set on PHH spheroids is on record as “-VE”. Also, the “in vivo DILI classification in publications of Supplemental Table 1” value in [3] (publications disagreeing with the LTKB classification, ref Supplemental Table 1 publications) is recorded as “DILI positive in vivo”. For the same compound, the “In vivo DILI” value in data set [3] (ref Garside 2014), in [3] (ref O'Brien 2006), in [3] (ref Vorrink 2018) and in data set [3] (ref Xu 2008) was “+VE” each time. The “Cluster 1-6 +VE Assay” value in data set [4] (setting [10]) is “+VE”. The “DILI Score (FDA) (1-8)” value in data set [5] (ref Chen 2011) is reported as 2.

Regarding `C[C@](N)(Cc1ccc(O)c(O)c1)C(=O)O` [methyldopa], in [1] (ref Chen 2016), the “DILI +VE (5-8), DILI -VE (-4)” value is given as “+VE”. In addition, in data set [1] (ref Chen 2016), the DILI severity category entry is on record as “vMost-DILI-Concern”. In addition, the figures for the “Structural based (HCI)” value in the data set on HepG2 cells [2] and in the data set with HepG2 cells [6] were “-VE” and “+VE”, respectively. For the same compound, in the data set on HepG2 cells [6], the Cluser analysis entry is on record as “-VE”. Moreover, the “In vivo DILI” value in [3] ([…]), in data set [3] (ref Dawson 2012), in [3] (ref Garside 2014), in [3] (ref Gustafsson 2014), in data set [3] (ref O'Brien 2006) and in data set [3] (ref Persson 2013) was “+VE” each time. The “In vivo DILI” value in [3] (ref Porceddu 2012) is reported as “-VE”. Besides, in data set [7], the THLE-Null entry was “-VE”. Further, the THLE-Null/3A4 result in data set [7] was “-VE”. Moreover, the “Cluster 1-6 +VE Assay” value in data set [4] (setting [10]) is given as “-VE”. The “in vitro data EC2<=1x Cmax” value in data set [8] was “+VE”. Besides, the “in vitro data EC20<=2uM” value in data set [8] was “-VE”. For the same compound, the “DILI Score (FDA) (1-8)” value in [5] (ref Chen 2011) was 8. The “Inhibition of rBsep cutoff<1& cmax u>.2” value in the data set on rBsep was “-VE”. Moreover, the “Inhibition of rBsep cutoff<3” value with rBsep was “-VE”.

In the case of `CCCNC(=O)NS(=O)(=O)c1ccc(Cl)cc1` [chlorpropamide], in data set [1] (ref Chen 2016), the “DILI +VE (5-8), DILI -VE (-4)” value is reported as “+VE” and the DILI severity category entry is “vLess-DILI-Concern”. Besides, in data set [9], the “Partition Hybrid HRM Score” value was “-VE” and the “Ro2 Hybrid HRM Score” value is “+VE”. Further, the “In vivo DILI” value in data set [3] ([…]) is given as “+VE”. In addition, in data set [3] (ref Aleo 2019), the “In vivo DILI” value is “+VE”. The “In vivo DILI” value in data set [3] (ref Dawson 2012) is recorded as “+VE”. For the same compound, the “In vivo DILI” value in data set [3] (ref Garside 2014) is “+VE”. In addition, the “In vivo DILI” value in data set [3] (ref Gustafsson 2014) is “+VE”. Also, in data set [7], the THLE-Null result is reported as “-VE” and the THLE-Null/3A4 result was “-VE”. The “Cluster 1-6 +VE Assay” value in [4] (setting [10]) is “-VE”. In addition, in data set [5] (ref Chen 2011), the “DILI Score (FDA) (1-8)” value is given as 2. Moreover, in the data set with rBsep, the “Inhibition of rBsep cutoff<1& cmax u>.2” value is reported as “-VE” and the “Inhibition of rBsep cutoff<3” value is “-VE”.

Regarding `CO[C@H]1/C=C/O[C@@]2(C)Oc3c(C)c(O)c4c(O)c(c(/C=N/N5CCN(C)CC5)c(O)c4c3C2=O)NC(=O)/C(C)=C\C=C\[C@H](C)[C@H](O)[C@@H](C)[C@@H](O)[C@@H](C)[C@H](OC(C)=O)[C@@H]1C` [rifampin], in data set [1] (ref Chen 2016), the “DILI +VE (5-8), DILI -VE (-4)” value is on record as “+VE” and the DILI severity category entry is reported as “vMost-DILI-Concern”. In addition, in data set [9], the “Partition Hybrid HRM Score” value is “+VE” and the “Ro2 Hybrid HRM Score” value is listed as “+VE”. The “In vivo DILI” value in data set [3] ([…]) is reported as “+VE”. In addition, the “In vivo DILI” value in data set [3] (ref Aleo 2019) is “+VE”. In addition, the “In vivo DILI” value in data set [3] (ref Garside 2014) was “+VE”. Further, the “Cluster 1-6 +VE Assay” value in data set [4] (setting [10]) is on record as “-VE”. In addition, the “DILI Score (FDA) (1-8)” value in data set [5] (ref Chen 2011) is given as 8.

As for `CN(C/C=C/C#CC(C)(C)C)Cc1cccc2ccccc12` [terbinafine], in data set [1] (ref Chen 2016), the “DILI +VE (5-8), DILI -VE (-4)” value is “+VE” and the DILI severity category result is given as “vMost-DILI-Concern”. Besides, the “Structural based (HCI)” value in the data set on HepG2 cells [2] is “+VE”. Further, the “In vivo DILI” value in data set [3] (ref Garside 2014) was “+VE”. In addition, the “In vivo DILI” value in data set [3] (ref Gustafsson 2014) is on record as “+VE”. In addition, in data set [3] (ref O'Brien 2006), the “In vivo DILI” value is recorded as “+VE”. For the same compound, the “In vivo DILI” value in [3] (ref Porceddu 2012) was “+VE”. For the same compound, in data set [7], the THLE-Null result is “+VE” and the THLE-Null/3A4 entry is given as “-VE”. Besides, the “Cluster 1-6 +VE Assay” value in [4] (setting [10]) was “-VE”. Also, in [8], the “in vitro data EC2<=1x Cmax” value was “+VE” and the “in vitro data EC20<=2uM” value is “+VE”. Moreover, in [5] (ref Chen 2011), the “DILI Score (FDA) (1-8)” value is on record as 8.
